pIC50: −log10 of the molar value.
How the values were obtained:
Assay in all cases: cells
Design in all cases: CellTiter-Glo 2.0 luminescence proliferation/viability assay, single agents, human tumour cell line panel
HCC95 = conditions: Homo sapiens, HCC95, 96 h; single agent; read-out: IC50 SMACm
How it was run: (§1)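 Human tumour cell lines were seeded into assay plates and held at 37°C with 5% CO2 for twenty-four hours, then exposed in triplicate to rising concentrations of the SMAC mimetic, from 4.5 nM to 10 μM, with DMSO as control. After 96 h, viability was read as CellTiter-Glo2.0 luminescence to derive single-agent IC50 values.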

HUTU-80 = conditions: Homo sapiens, HuTu80, 96 h; single agent; read-out: IC50 SMACm
How it was run: as §1

NCI-H2087 = conditions: Homo sapiens, NCI-H2087, 96 h; single agent; read-out: IC50 SMACm
How it was run: as §1

EBC-1 = conditions: Homo sapiens, EBC-1, 96 h; single agent; read-out: IC50 SMACm
How it was run: as §1

HCC1588 = conditions: HCC1588, 96 h; single agent; read-out: IC50 SMACm
How it was run: as §1

C84 = conditions: 96 h; single agent; read-out: IC50 SMACm
How it was run: as §1

PSN1 = conditions: Homo sapiens, PSN1, 96 h; single agent; read-out: IC50 SMACm
How it was run: as §1

SW837 = conditions: Homo sapiens, SW837, 96 h; single agent; read-out: IC50 SMACm
How it was run: as §1

LIM2550 = conditions: 96 h; single agent; read-out: IC50 SMACm
How it was run: as §1

HT55 = conditions: Homo sapiens, HT55, 96 h; single agent; read-out: IC50 SMACm
How it was run: as §1

NCI-H358 = conditions: Homo sapiens, NCI-H358, 96 h; single agent; read-out: IC50 SMACm
How it was run: as §1

C32 = conditions: Homo sapiens, C32, 96 h; single agent; read-out: IC50 SMACm
How it was run: as §1

LU-99 = conditions: Homo sapiens, Lu-99, 96 h; single agent; read-out: IC50 SMACm
How it was run: as §1

CACO2 = conditions: Homo sapiens, Caco-2, 96 h; single agent; read-out: IC50 SMACm
How it was run: as §1

CN[C@@H](C)C(=O)Nc1ccc(-c2c(-c3cccnc3OC)nc3cc(C)ccn23)c(C#Cc2ccc3c(C)nccc3c2)n1 [SMACm, BI 891065]
pIC50 (HCC95): 5.22
pIC50 (HUTU-80): 5.48
pIC50 (NCI-H2087): 5.30
pIC50 (EBC-1): 5.65
pIC50 (HCC1588): 5.51
pIC50 (C84): 5.48
pIC50 (PSN1): 5.14
pIC50 (SW837): 5.20
pIC50 (LIM2550): 5.68
pIC50 (HT55): 5.30
pIC50 (NCI-H358): < 5.00
pIC50 (C32): 5.96
pIC50 (LU-99): 5.13
pIC50 (CACO2): 5.53

— PMC12490239, “Combining BET inhibition with SMAC mimetics restricts tumor growth and triggers immune surveillance in preclinical cancer models” (Cell Reports Medicine, 2025)
